Target: T1, dog PGP (Canis lupus familiaris, UniProt C0KKU9)
T1 construct: expressed in transfected cells; host or cells: LLC-PK1 cells (ATCC), electroporated with the p222CMV episomal vector and selected with hygromycin B
Experiment: Polarization of vinblastine transport across dog PGP transfected LLC-PK1 cell monolayers in Transwells
Format: cell-based
Conditions: PGP transfected cells, compared with control cells; vinblastine (0.1 uM) transport in Transwells
Description: Dog PGP cDNA (SEQ ID NO:1) is introduced into a clonal population of LLC-PK1 cells in a vector that confers resistance to hygromycin B. LLC-PK1 cells are obtained from the American Type Culture Collections and are propagated in Medium 199 supplemented to 7% with fetal bovine serum. LLC-PK1 cells are recloned prior to transfection in order to assure homogeneity of the cell population. Briefly, dog PGP cDNA is incorporated into the p222CMV vector. […] The PGP cDNA is under the control of the cytomegalovirus (CMV) immediate early promoter. The vector confers resistance to hygromycin B. Cells (in 0.4 mL) and DNA (10 to 20 μg) were transfected by electroporation using a BTX Electro cell manipulator model 600 using a 2 mm gap cell, 100V, 2500 μF capacitance and 72 ohm resistance. […] Expression of PGP is measured by the polarization of vinblastine (0.1 uM) transport in Transwells™.
LLC-PK1 cell based transport studies are conducted in 24 well Transwells™ (Corning Costar, Catalog number 3415). […] Transport is measured under sink conditions in both the apical to basolateral (A to B) and basolateral to apical (B to A) directions. […] Quantitation of the amount of compound transported is by liquid scintillation counting (vinblastine) or HPLC with UV or mass spectrometric detection.
Functional expression of dog PGP is measured by the polarization of transport of vinblastine.

T1 sequence (C0KKU9 1-1281): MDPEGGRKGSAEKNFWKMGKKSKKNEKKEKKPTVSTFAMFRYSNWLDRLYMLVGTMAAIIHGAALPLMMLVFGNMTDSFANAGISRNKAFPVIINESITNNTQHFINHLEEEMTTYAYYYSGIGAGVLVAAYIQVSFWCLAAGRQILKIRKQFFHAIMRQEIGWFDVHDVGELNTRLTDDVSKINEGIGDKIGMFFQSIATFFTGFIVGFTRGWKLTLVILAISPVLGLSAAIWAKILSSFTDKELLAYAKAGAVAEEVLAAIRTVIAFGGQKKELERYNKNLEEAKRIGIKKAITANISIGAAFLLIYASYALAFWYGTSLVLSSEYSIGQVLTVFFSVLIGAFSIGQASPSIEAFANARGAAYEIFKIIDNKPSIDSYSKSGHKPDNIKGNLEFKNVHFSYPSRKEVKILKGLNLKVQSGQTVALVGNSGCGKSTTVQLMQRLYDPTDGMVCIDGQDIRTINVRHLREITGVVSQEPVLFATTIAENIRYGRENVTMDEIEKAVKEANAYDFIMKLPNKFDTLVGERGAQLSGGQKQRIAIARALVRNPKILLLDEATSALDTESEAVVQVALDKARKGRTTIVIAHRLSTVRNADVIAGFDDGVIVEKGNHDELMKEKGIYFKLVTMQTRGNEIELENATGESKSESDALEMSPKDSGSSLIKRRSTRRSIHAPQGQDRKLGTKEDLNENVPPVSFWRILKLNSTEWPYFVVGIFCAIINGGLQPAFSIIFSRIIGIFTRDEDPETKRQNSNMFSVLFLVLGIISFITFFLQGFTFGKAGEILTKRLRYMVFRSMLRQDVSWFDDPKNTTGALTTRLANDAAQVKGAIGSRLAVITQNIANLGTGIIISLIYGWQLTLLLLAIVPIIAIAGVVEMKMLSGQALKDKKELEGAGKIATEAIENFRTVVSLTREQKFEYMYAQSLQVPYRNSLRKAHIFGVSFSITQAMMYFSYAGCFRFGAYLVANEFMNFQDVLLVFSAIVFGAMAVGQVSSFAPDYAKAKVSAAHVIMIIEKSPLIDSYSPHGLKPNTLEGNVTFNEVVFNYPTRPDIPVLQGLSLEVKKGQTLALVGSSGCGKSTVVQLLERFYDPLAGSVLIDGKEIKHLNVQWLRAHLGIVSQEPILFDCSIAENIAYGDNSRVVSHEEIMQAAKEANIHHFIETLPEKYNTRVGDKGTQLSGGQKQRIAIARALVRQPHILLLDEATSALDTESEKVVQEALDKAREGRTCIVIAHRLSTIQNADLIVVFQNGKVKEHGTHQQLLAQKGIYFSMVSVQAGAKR

B to A/A to B ratio: much higher ratio
SMILES: CC[C@]1(O)C[C@@H]2CN(CCc3c([nH]c4ccccc34)[C@@](C(=O)OC)(c3cc4c(cc3OC)N(C)[C@H]3[C@@](O)(C(=O)OC)[C@H](OC(C)=O)[C@]5(CC)C=CCN6CC[C@]43[C@@H]65)C2)C1 [vinblastine]
